Data from publication PMC11357256, “Selectivity Screening and Structure–Cytotoxic Activity Observations of Selected Oleanolic Acid (OA)-Type Saponins from the Amaranthaceae Family on a Wiade Panel of Human Cancer Cell Lines” (Molecules, 2024).

Legend:
PC3 = assay: MTT cell viability assay, PC3 prostate carcinoma cells; assay type: cell-based; conditions: Homo sapiens, PC-3
Excerpt: (§1) Cell lines used in the study were grouped as follows: skin panel (melanomas: HTB140, derived from metastatic site: lymph node, ATCC Hs 294 T; malignant A375, ATCC CRL-1619; stage I primary WM793, RRID:CVCL 8787; skin keratinocytes HaCaT); prostate panel (prostate carcinomas: Du145, derived from metastatic site: brain, ATCC HTB-81; grade IV PC3, derived from metastatic site: bone, ATCC CRL-1435, LNCaP, derived from the metastatic site: lymph node, ATCC CRL-1740; prostate epithelial, PNT2, ECACC 95012613); gastrointestinal panel (colorectal adenocarcinomas: Caco2, ATCC HTB-37, HT29, ATCC HTB-38, DLD-1, ATCC CCL-221, HCT116, ATCC CCL-247, and colon epithelial cells CCD 841 CoN, ATCC CRL-1790; hepatocellular carcinoma HepG2, ATCC HB-8065); thyroid panel (follicular thyroid carcinoma FTC133, ECACC 9406090, undifferentiated thyroid carcinoma 8505C, ECACC 94090184, papillary thyroid carcinoma TPC-1, SCC147, normal thyroid follicular epithelial Nthy-ori 3–1, ECACC 90011609); and breast panel (ER-positive breast adenocarcinoma MCF7, ATCC HTB-22; ER-negative breast adenocarcinoma MDA-MB-231, ATCC HTB-26; breast epithelial MCF10A, ATCC CRL-10317). Cells were grown under standard conditions (37 °C, 5% CO2, relative humidity), and culture media (DMEM/F12 for PNT2, WM 793, HT29, PC3, FTC133, 8505 C, MDA-MB-231, TPC-1; DMEM Low Glucose for DU145; DMEM High Glucose for HTB140, A375, HaCaT; MEM with NEAA for Caco2 and MCF7; RPMI1640 with sodium pyruvate for LNCaP; DMEM/F12 with 20 ng/mL epidermal growth factor (EGF), 10 μg/mL insulin, 0.5 μg/mL hydrocortisone, 100 ng/mL cholera toxin) for MCF10A) supplemented with 10% fetal bovine serum (FBS) or 5% donor horse serum for MCF10A, and 1% antibiotics solution (10,000 U penicillin and 10 mg streptomycin/mL) […], as previously described. All cell lines, culture media, and supplements were from Sigma-Aldrich (Germany).
(§2) The cells were seeded in 96-well plates (1.5 × 10^4 cells/well). After 24 h, fresh medium was added, containing the tested compounds (0.5–100 μg/mL) and incubated for 24 or 48 h. Cell viability was determined by MTT assay, according to the manufacturer’s instructions, as described previously. Each experiment was performed in triplicate. The absorbance was measured at 570 nm using a Biotek Synergy microplate reader (BioTek Instruments Inc., Winooski, VT, USA). Cell viability was expressed as a percent of control (untreated cells). Doxorubicin was used as a reference drug.

8505C = assay: MTT cell viability assay, 8505C undifferentiated thyroid carcinoma cells; assay type: cell-based, human; conditions: for IC50: Homo sapiens, 8505C; for Selectivity Index (SI): IC50 Nthy-ori 3-1 / IC50 8505C
Excerpt: as §1, §2
The selectivity index (SI) was calculated from the following formula:SI = IC50 of compound in a normal cell line/IC50 of compound in cancer cell line.IC50, half maximal inhibitory concentration, is a concentration required to kill 50% of the cells.

Nthy-ori 3-1 = assay: MTT cell viability assay, Nthy-ori 3-1 normal thyroid epithelial cells; assay type: cell-based; conditions: Homo sapiens
Excerpt: as §1, §2

DLD-1 = assay: MTT cell viability assay, DLD-1 colon cancer cells; assay type: cell-based; conditions: Homo sapiens
Excerpt: as §1, §2

CC1(C)CCC2(C(=O)O)CCC3(C)C(=CCC4C5(C)CCC(OC6OC(C(=O)O)C(O)C(O)C6O)C(C)(C)C5CCC43C)C2C1 [CE, oleanolic acid-3-O-β-D-glucuronopyranoside]
IC50 (PC3; PC3, 24 h): 5.6 µg/mL | IC50 (PC3; PC3, 48 h): 2.9 µg/mL | IC50 (8505C; 24 h): 2.8 µg/mL | IC50 (8505C; 48 h): 1.8 µg/mL | Selectivity Index (SI) (8505C; 24 h): 26.9 | Selectivity Index (SI) (8505C; 48 h): 16.5 | IC50 (Nthy-ori 3-1; 24 h): 76 µg/mL | IC50 (Nthy-ori 3-1; 48 h): 30.1 µg/mL | IC50 (DLD-1; DLD-1, 24 h): 31.2 µg/mL | IC50 (DLD-1; DLD-1, 48 h): 9 µg/mL
